Calls of active or inactive are those of the source.
What was measured:
[1] = Trypanosoma cruzi growth suppression in host cells – NIH3T3 host cells, beta-gal luminescence, confirmation (AID 2044); format: functional, cell-based;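 note: intracellular parasites grown in NIH/3T3 mouse fibroblasts as host cells; luminescent beta-galactosidase reporter signal from transgenic T. cruzi replicating inside host cells; inhibitors lower the luminescence signal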
[2] = NIH3T3 cell viability loss – ATP luminescence, mouse fibroblasts, counter-screen, dose response (AID 2010); format: functional, cell-based;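 note: cells exposed to compound for about 90 hours before reading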
[3] = tested on: Escherichia coli; test: microbe, parasite or virus in culture
[4] = tested on: Escherichia coli; test: microbe, parasite or virus in culture; remark: listed apart in the source
[5] = HEK-293T cell viability reduction – luminescence, B-cell screen hits, cytotoxicity control for BCR NF-kB inhibitor project, dose response (AID 489021); format: functional, cell-based;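 note: HEK-293T cells carrying an NF-kB luciferase reporter; cells exposed to compound for about 14 hours before viability readout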
[6] = molecular target: Cytochrome P450 2C19 (Homo sapiens, UniProt P33261); test: Cytochrome panel assay with activity outcomes. Panel member name: p450-cyp2c19 Compounds with AC50 equal or less than 10 uM are considered active; format: functional; details: read-out: AC50
Cytochrome P450 2C19, sequence (P33261 whole entry): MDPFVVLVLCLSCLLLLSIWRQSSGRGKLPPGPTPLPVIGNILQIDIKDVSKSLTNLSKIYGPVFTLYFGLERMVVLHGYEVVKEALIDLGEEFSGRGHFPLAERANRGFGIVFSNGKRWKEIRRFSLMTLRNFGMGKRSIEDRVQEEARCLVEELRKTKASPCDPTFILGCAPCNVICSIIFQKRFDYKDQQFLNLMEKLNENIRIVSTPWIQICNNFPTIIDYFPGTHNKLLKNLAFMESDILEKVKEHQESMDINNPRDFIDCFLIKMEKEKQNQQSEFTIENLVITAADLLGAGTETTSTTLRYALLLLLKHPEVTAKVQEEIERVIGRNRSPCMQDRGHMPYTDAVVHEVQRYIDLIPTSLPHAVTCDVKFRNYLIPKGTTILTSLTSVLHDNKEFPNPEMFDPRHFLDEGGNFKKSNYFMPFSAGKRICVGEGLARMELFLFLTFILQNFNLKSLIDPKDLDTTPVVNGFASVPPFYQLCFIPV

[7] = tested on: HEK293; test: HEK293T cell viability loss, resazurin readout – resazurin fluorescence, cytotoxicity control for NF-kB activator project, SAR follow-up (AID 493251); format: functional, cell-based; details: Homo sapiens
[8] = tested on: Jurkat; test: SAR Analysis of small molecule inhibitors of T-cell specific antigen receptor-induced NF-kB activation in a Jurkat cell line using a luminescence assay - Set 2. [Related pubchem assays (depositor defined):AID435003, AID435012, AID465]; format: functional, cell-based; details: Homo sapiens
[9] = tested on: HEK293; test: SAR Analysis of small molecule inhibitors of T-cell specific antigen receptor-induced NF-kB activation in a HEK-293T cell line using a luminescence assay - Set 2. [Related pubchem assays (depositor defined):AID435003, AID435012, AID489026]; format: functional, cell-based; details: Homo sapiens

Row | Compound | EC50 [1] | EC50 [2] | AC50 [3] | AC50 [4] | IC50 [5] | AC50 [6] | IC50 [7] | IC50 [8] | IC50 [9]
1 | N#C/C(=C\c1ccc(N2CCCCC2)c([N+](=O)[O-])c1)c1nn(-c2ccccc2)c(N)c1C#N | 1.81 µM (active) | > 30 µM (not active) | 26.2 µM (active) | > 380 µM (inactive) | – | – | – | – | –
2 | CN(C)C(=O)CCc1nc(-c2ccc(C(C)(C)C)cc2)no1 | – | – | – | – | > 80 µM (inactive) | 22.4 µM (inconclusive) | > 80 µM (inactive) | > 79 µM (inactive) | 48.5 µM (inactive)

— ChEMBL document CHEMBL1201862, “PubChem BioAssay data set” (2004)
